The record followed here is patent US9062014B2, “Crystalline forms of (R)-5-[3-chloro-4-(2,3-dihydroxy-propoxy)-benz[Z]ylidene]-2-([Z]-propylimino)-3-0-tolyl-thiazolidin-4-one” (ACTELION PHARMACEUTICALS LTD., priority 2008, dated 2015).

The data set in a line: Hygroscopicity by gravimetric vapour sorption (GVS). The data set is classed as physicochemical. As to conditions: 25° C.; for Hygroscopicity classification according to the European Pharmacopea Technical Guide (1999 edition): mass change between 40% and 80% relative humidity, first adsorption scan; for mass gain: mass change between 40% relative humidity and 80% relative humidity in the first adsorption scan. On the procedure:
Gravimetric Vapour Sorption (GVS)
Sorption isotherms are obtained using a Hiden IGASorp moisture sorption analyser, controlled by CFRSorp software. The sample temperature is maintained at 25° C. by a Huber re-circulating water bath. The humidity is controlled by mixing streams of dry and wet nitrogen, with a total flow rate of 250 ml·min^−1. The relative humidity is measured by a calibrated Vaisala RH probe (dynamic range of 0-95% RH), located near the sample. The weight change of the sample as a function of % RH is constantly monitored by the microbalance (accuracy±0.001 mg).
Typically 10-20 mg of sample is placed in a tared mesh stainless steel basket under ambient conditions. The sample is loaded and unloaded at 40% RH and 25° C. (typical room conditions).
A moisture sorption isotherm is performed as outlined below (2 scans giving 1 complete cycle). The standard isotherm is performed at 25° C. at 10% RH intervals over a 0-90% RH range.
The software uses a least squares minimisation procedure together with a model of the mass relaxation, to predict an asymptotic value. The measured mass relaxation value must be within 5% of that predicted by the software, before the next % RH value is selected. The minimum equilibration time is set to 1 hour and the maximum to 4 hours.
Classification is done according to the European Pharmacopea Technical Guide (1999 edition) (e.g. slightly hygroscopic: increase in mass is less than 2% and equal to or greater than 0.2% mass/mass; hygroscopic: increase in mass is less than 15% and equal to or greater than 2% mass/mass). The mass change between 40% relative humidity and 80% relative humidity in the first adsorption scan is considered.

As for `CCC/N=C1\S/C(=C\c2ccc(OC[C@H](O)CO)c(Cl)c2)C(=O)N1c1ccccc1C` [Amorphous, (R)-5-[3-chloro-4-(2,3-dihydroxy-propoxy)-benz[Z]ylidene]-2-([Z]-propylimino)-3-o-tolyl-thiazolidin-4-one], the “Hygroscopicity classification according to the European Pharmacopea Technical Guide (1999 edition)” value (“Hygroscopicity classification according” below) was “Hygroscopic (hygroscopic: increase in mass is less than 15% and equal to or greater than 2% mass/mass)”; the mass gain is reported as 2.1%.
For `CCC/N=C1\S/C(=C\c2ccc(OC[C@H](O)CO)c(Cl)c2)C(=O)N1c1ccccc1C` [Form II, (R)-5-[3-chloro-4-(2,3-dihydroxy-propoxy)-benz[Z]ylidene]-2-([Z]-propylimino)-3-o-tolyl-thiazolidin-4-one], the “Hygroscopicity classification according” value is “Slightly hygroscopic (slightly hygroscopic: increase in mass is less than 2% and equal to or greater than 0.2% mass/mass)”; the mass gain amounted to 0.2%.
`CCC/N=C1\S/C(=C\c2ccc(OC[C@H](O)CO)c(Cl)c2)C(=O)N1c1ccccc1C` [Form A, (R)-5-[3-chloro-4-(2,3-dihydroxy-propoxy)-benz[Z]ylidene]-2-([Z]-propylimino)-3-o-tolyl-thiazolidin-4-one]: the “Hygroscopicity classification according” value is listed as “Non-hygroscopic” and the mass gain is on record as less than 0.2%.
For the molecule `CCC/N=C1\S/C(=C\c2ccc(OC[C@H](O)CO)c(Cl)c2)C(=O)N1c1ccccc1C` [Form C, (R)-5-[3-chloro-4-(2,3-dihydroxy-propoxy)-benz[Z]ylidene]-2-([Z]-propylimino)-3-o-tolyl-thiazolidin-4-one], the “Hygroscopicity classification according” value is on record as “Non-hygroscopic” and the mass gain is given as less than 0.2%.
